pEC50: −log10 of the molar value. Where two headings read alike, the source gives them in different places.
How the values were obtained:
Type in all cases: cell-based, human
SKOV3 = experiment: 3H thymidine proliferation assay, SKOV3
Method in brief: (§1)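 Seeding: 1.0×10^4 cells/well, 3 h. Dosing: 1:3 serial dilutions, 72 h. Label: ^3H-thymidine 1.0 μCi/well for last 24 h, scintillation read; EC50 = 50% proliferation reduction.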

MDA-MB-231 = experiment: ATP luminescence proliferation assay, MDA-MB-231
Method in brief: (§2)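 Cells were seeded at 1.0×10^3 cells/well for 3 h, then given 1:3 serial dilutions of free compound or conjugate and incubated 48, 72 or 96 h. Cellular ATP was read by luminescent viability kit, and EC50 was the concentration reducing proliferation by 50%.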

DMS53 [1] = experiment: ATP luminescence proliferation assay, DMS53
Method in brief: as §2

SK-BR3 = experiment: 3H thymidine proliferation assay, SK-BR3; conditions: 3H thymidine method, 72 h incubation
Method in brief: as §1

A549 = experiment: 3H thymidine proliferation assay, A549
Method in brief: as §1

DMS53 [2] = experiment: 3H thymidine proliferation assay, DMS53
Method in brief: as §1

OVCAR3 [3] = experiment: ATP luminescence proliferation assay, OVCAR3
Method in brief: as §2

UO-31 = experiment: 3H thymidine proliferation assay, UO-31
Method in brief: as §1

NCI-H460 = experiment: ATP luminescence proliferation assay, NCI-H460
Method in brief: as §2

SW-620 = experiment: ATP luminescence proliferation assay, SW-620
Method in brief: as §2

OVCAR3 [4] = experiment: 3H thymidine proliferation assay, OVCAR3
Method in brief: as §1

U-87 MG = experiment: 3H thymidine proliferation assay, U-87 MG
Method in brief: as §1

A2058 = experiment: ATP luminescence proliferation assay, A2058
Method in brief: as §2

786-O = experiment: ATP luminescence proliferation assay, 786-O
Method in brief: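 Read-out: luminescent ATP cell viability after 48, 72 or 96 h incubation, as noted, with 1:3 serial dilutions of unconjugated compounds or their conjugates. Plating was 1.0×10^3 cells/well, 3 h before dosing. EC50 = concentration giving 50% inhibition of proliferation.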

BT474 = experiment: ATP luminescence proliferation assay, BT474
Method in brief: as §2

ZR-75 = experiment: ATP luminescence proliferation assay, ZR-75
Method in brief: as §2

Hep3B = experiment: 3H thymidine proliferation assay, Hep3B
Method in brief: as §1

HL-60 = experiment: 3H thymidine proliferation assay, HL-60
Method in brief: as §1

[5] = Homo sapiens, SK-OV-3, read-out: EC50, SKOV3, 3H thymidine method, 72 h incubation
[6] = Homo sapiens, MDA-MB-231, 72 h, read-out: EC50 MDA-MB-231 (72 h), ATP luminescence, MDA-MB-231, 72 h incubation
[7] = Homo sapiens, DMS-53, 72 h, read-out: EC50 DMS53 (72 h), ATP luminescence, DMS53, 72 h incubation
[8] = Homo sapiens, A549, read-out: EC50, A549, 3H thymidine method, 72 h incubation
[9] = Homo sapiens, DMS-53, read-out: EC50, DMS53, 3H thymidine method, 72 h incubation
[10] = Homo sapiens, OVCAR-3, 48 h, read-out: EC50 OVCAR3 (48 h), ATP luminescence, OVCAR3, 48 h incubation
[11] = Homo sapiens, UO-31, read-out: EC50, UO-31, 3H thymidine method, 72 h incubation
[12] = Homo sapiens, NCI-H460, 72 h, read-out: EC50 NCI-H460 (72 h), ATP luminescence, NCI-H460, 72 h incubation
[13] = Homo sapiens, SW-620, 96 h, read-out: EC50 SW-620 (96 h), ATP luminescence, SW-620, 96 h incubation
[14] = Homo sapiens, OVCAR-3, read-out: EC50, OVCAR3, 3H thymidine method, 72 h incubation
[15] = Homo sapiens, U-87 MG, read-out: EC50, U-87 MG, 3H thymidine method, 72 h incubation
[16] = Homo sapiens, A2058, 72 h, read-out: EC50 A2058 (72 h), ATP luminescence, A2058, 72 h incubation
[17] = Homo sapiens, 786-0, 72 h, read-out: EC50 786-O (72 h), ATP luminescence, 786-O, 72 h incubation
[18] = Homo sapiens, BT-474, 48 h, read-out: EC50 BT474 (48 h), ATP luminescence, BT474, 48 h incubation
[19] = Homo sapiens, ZR75, 48 h, read-out: EC50 ZR-75 (48 h), ATP luminescence, ZR-75, 48 h incubation
[20] = Homo sapiens, Hep3B, read-out: EC50, Hep3B, 3H thymidine method, 72 h incubation
[21] = Homo sapiens, HL-60, read-out: EC50, HL-60, 3H thymidine method, 72 h incubation
[22] = Homo sapiens, DMS-53, 48 h, read-out: EC50 DMS53 (48 h), ATP luminescence, DMS53, 48 h incubation
[23] = Homo sapiens, MDA-MB-231, 48 h, read-out: EC50 MDA-MB-231 (48 h), ATP luminescence, MDA-MB-231, 48 h incubation
[24] = Homo sapiens, A2058, 48 h, read-out: EC50 A2058 (48 h), ATP luminescence, A2058, 48 h incubation

| SMILES | pEC50 (SKOV3; [5]) | pEC50 (MDA-MB-231; [6]) | pEC50 (DMS53 [1]; [7]) | pEC50 (SK-BR3; Homo sapiens, SK-BR-3) | pEC50 (A549; [8]) | pEC50 (DMS53 [2]; [9]) | pEC50 (OVCAR3 [3]; [10]) | pEC50 (UO-31; [11]) | pEC50 (NCI-H460; [12]) | pEC50 (SW-620; [13]) | pEC50 (OVCAR3 [4]; [14]) | pEC50 (U-87 MG; [15]) | pEC50 (A2058; [16]) | pEC50 (786-O; [17]) | pEC50 (BT474; [18]) | pEC50 (ZR-75; [19]) | pEC50 (Hep3B; [20]) | pEC50 (HL-60; [21]) | pEC50 (DMS53 [1]; [22]) | pEC50 (MDA-MB-231; [23]) | further results |
| --- | --- | --- | --- | --- | --- | --- | --- | --- | --- | --- | --- | --- | --- | --- | --- | --- | --- | --- | --- | --- | --- |
| CC[C@H](C)[C@H](NC(=O)[C@H]1CCCCN1C)C(=O)N(COC(=O)CC(C)C)[C@H](C[C@@H](OC(C)=O)c1nc(C(=O)N[C@@H](Cc2ccccc2)C(=O)OC)cs1)C(C)C [Compound 29] | – | – | – | – | – | – | – | – | – | – | – | – | – | – | – | – | – | – | – | – | pEC50 (SKOV3; 3H thymidine method, 72 h incubation, read-out: EC50, SKOV3): 10.54; pEC50 (MDA-MB-231; ATP luminescence, MDA-MB-231, 72 h incubation, read-out: EC50 MDA-MB-231 (72 h)): 8.29; pEC50 (DMS53 [1]; ATP luminescence, DMS53, 48 h incubation, read-out: EC50 DMS53 (48 h)): 8.28; pEC50 (SK-BR3): 8.96; pEC50 (A549; 3H thymidine method, 72 h incubation, read-out: EC50, A549): 9.36; pEC50 (DMS53 [2]; 3H thymidine method, 72 h incubation, read-out: EC50, DMS53): 9.55; pEC50 (OVCAR3 [3]; ATP luminescence, OVCAR3, 48 h incubation, read-out: EC50 OVCAR3 (48 h)): < 7.00; pEC50 (UO-31; 3H thymidine method, 72 h incubation, read-out: EC50, UO-31): 9.89; pEC50 (NCI-H460; ATP luminescence, NCI-H460, 72 h incubation, read-out: EC50 NCI-H460 (72 h)): 8.52; pEC50 (SW-620; ATP luminescence, SW-620, 96 h incubation, read-out: EC50 SW-620 (96 h)): 8.82; pEC50 (OVCAR3 [4]; 3H thymidine method, 72 h incubation, read-out: EC50, OVCAR3): 10.70; pEC50 (U-87 MG; 3H thymidine method, 72 h incubation, read-out: EC50, U-87 MG): 10.19; pEC50 (A2058; ATP luminescence, A2058, 72 h incubation, read-out: EC50 A2058 (72 h)): 8.54; pEC50 (786-O; ATP luminescence, 786-O, 72 h incubation, read-out: EC50 786-O (72 h)): 8.55; pEC50 (BT474; ATP luminescence, BT474, 48 h incubation, read-out: EC50 BT474 (48 h)): 8.82; pEC50 (ZR-75; ATP luminescence, ZR-75, 48 h incubation, read-out: EC50 ZR-75 (48 h)): 7.82; pEC50 (Hep3B; 3H thymidine method, 72 h incubation, read-out: EC50, Hep3B): 10.39; pEC50 (HL-60; 3H thymidine method, 72 h incubation, read-out: EC50, HL-60): 11.00 |
| CC[C@H](C)[C@H](NC(=O)[C@H]1CCCCN1C)C(=O)N(C)[C@H](C[C@@H](OC)c1nc(C(=O)N[C@@H](Cc2ccccc2)C(=O)N[C@@H](C)C(=O)OC)cs1)C(C)C [Compound 24] | 7.17 | 7.89 | < 7.00 | < 7.00 | 7.42 | < 7.00 | 7.54 | < 7.00 | 7.64 | 8.00 | 7.05 | 7.74 | 7.85 | 7.44 | 8.34 | 8.08 | 7.49 | 8.16 | – | – | – |
| CC[C@H](C)[C@H](NC(=O)[C@H]1CCCCN1C)C(=O)N(COC(=O)CC(C)C)[C@H](C[C@@H](OC(C)=O)c1nc(C(=O)N[C@@H](Cc2ccc(N)cc2)CC(C)C(=O)O)cs1)C(C)C (stereo partly drawn) [Compound 54] | 9.47 | 8.25 | – | 8.96 | 9.62 | 8.70 | < 7.00 | 8.89 | 8.80 | 8.96 | 8.41 | 9.96 | 8.85 | 8.59 | 8.32 | 8.02 | 9.52 | 9.28 | 8.10 | – | – |
| CC[C@H](C)[C@H](NC(=O)[C@H]1CCCCN1C)C(=O)N(C)[C@H](C[C@@H](OC)c1nc(C(=O)N[C@H](CCC(=O)OC)Cc2ccccc2)cs1)C(C)C [Compound 26] | 8.34 | – | 6.71 | 7.49 | 7.74 | 7.00 | – | 7.30 | 7.05 | 7.32 | 8.49 | 8.28 | – | 6.90 | 7.72 | 6.68 | 7.74 | 9.35 | – | 6.92 | pEC50 (OVCAR3 [3]; Homo sapiens, OVCAR-3, 72 h, read-out: EC50 OVCAR3 (72 h), ATP luminescence, OVCAR3, 72 h incubation): 7.31; pEC50 (A2058; [24]): 7.03 |
| CCCC(NC(=O)c1csc([C@@H](C[C@H](C(C)C)N(C)C(=O)[C@@H](NC(=O)[C@H]2CCCCN2C)[C@@H](C)CC)OC)n1)C(=O)OC (stereo partly drawn) [Compound 17] | 7.04 | – | – | < 7.00 | < 7.00 | < 7.00 | < 7.00 | < 7.00 | – | 7.19 | < 7.00 | 7.92 | – | 7.14 | 7.64 | 7.62 | < 7.00 | 7.77 | ~7.10 | 7.19 | pEC50 (NCI-H460; Homo sapiens, NCI-H460, 48 h, read-out: EC50 NCI-H460 (48 h), ATP luminescence, NCI-H460, 48 h incubation): 7.16; pEC50 (A2058; [24]): 7.52 |

From patent US20130204033A1, “ANTIPROLIFERATIVE COMPOUNDS, CONJUGATES THEREOF, METHODS THEREFOR, AND USES THEREOF” (Medarex, Inc., priority 2009, published 2013)
